Assay results published in patent US20220193209A1, “COMPOSITIONS AND METHODS FOR REACTIVATING LATENT IMMUNODEFICIENCY VIRUS AND/OR TREATING IMMUNODEFICIENCY VIRUS INFECTION” (The J. David Gladstone institutes, a testamentary trust …, priority 2019, published 2022).

Test system: J-Lat cells
Assay: Cell viability of J-Lat cells by flow cytometry
Format: cell-based
Description: FIG. 3, Panel A, depicts results of treatment of a J-Lat cell line 5A8 with increasing concentrations (1-10000 nM) of AS1842856 for 24, 48 and 72 h. HIV-GFP mRNA reactivation was assessed by RT-qPCR and normalized to RPL13A mRNA. Data represent average SD of three independent experiments. p-value relative to the control at each time point. FIG. 3, Panel B, depicts cell viability assessed by flow cytometry at 72 h of the same experiment as in A. Cell viability was measured by gating on both the live population at the forward scatter (FSC) and side scatter (SSC) plot and then the viable cells after staining with the viability dye. FIG. 3, Panel C, depicts results of treatment of J-Lat cell lines A2 and A72 with increasing concentrations of AS1842856 for 24, 48 and 72 h. HIV-GFP reactivation (bars) and cell viability (dots) were analyzed by FACS. HIV-GFP reactivation is reported as a percentage of GFP-expressing cells (% GFP+ cells). Data represent average f SD of at least three independent experiments. FIG. 3, Panel D, depicts the same experiments as in FIG. 3, Panel C, but performed in different J-Lat cell lines 5A8, 6.3, 11.1 and 15.4. Data represent average f SD of at least three independent experiments. 10 ng/mL TNFα was used as control. FIG. 3 Panel E depicts results of treatment of J-Lat cell lines 5A8, 6.3, 11.1 and 15.4 for 72 h with increasing concentrations of both AS1842856 (Y-axis) and TNFα (X-axis) alone or in combination and analyzed by FACS. Calculation of synergy for drug combinations using the Bliss independence model applied to the HIV-GFP reactivation measured as a percentage of GFP-expressing cells (% GFP+ cells).
FIG. 10, Panels A-F depict results of a J-Lat cell line 5A8 treated with different concentrations of inhibitors. FIG. 10, Panel A, depicts results for a J-Lat cell line A58 that was treated with increasing concentrations of A-92 (GCN2 inhibitor) in combination with 1000 nM AS1842856 (72 h) or 10 ng/mL TNFα (24 h). HIV-GFP reactivation was analyzed by FACS and relativized to the control condition. Histogram plots of percent live cells for each drug treatment are shown. FIG. 10, Panel B, depicts the same experiment as in FIG. 10, Panel A, but cells were treated with increasing concentrations of PKR inhibitor (PKRi). Histogram plots representing viability are also shown. Data are represented by mean±SD of three different […]. […] FIG. 10, Panel D, depicts a J-Lat cell line A58 that was treated with increasing concentrations of Ionomycin (0.01, 0.1, 0.5, 1 μM) for 24, 48 and 72 hr. HIV-GFP reactivation and cell viability were analyzed by FACS. FIG. 10, Panel E, depicts a J-Lat cell line 5A8 that was treated for 72 h with increasing concentrations of both Fenretinide (Y-axis) and Ionomycin (X-axis) alone or in combination and analyzed by FACS. HIV-GFP reactivation is reported as a percentage of GFP-expressing cells (% GFP+ cells). FIG. 10, Panel F, depicts a J-Lat cell line 5A8 that was also treated for 72 h with increasing concentrations of both Thapsigargin (Y-axis) and Cyclosporin A (X-axis) alone or in combination and analyzed by FACS. HIV-GFP reactivation is again reported as a percentage of GFP-expressing cells (% GFP+ cells).

## CCn1cc(C(=O)O)c(=O)c2c(N)c(F)c(NC3CCCCC3)cc21 [AS1842856, 5-amino-7-(cyclohexylamino)-1-ethyl-6-fluoro-4-oxo-1,4-dihydro-quinoline-3-carboxylic acid]
J-Lat 5A8, 72 h
  cell viability: No major effects
J-Lat A2 and A72
  cell viability: no effect
Four J-Lat clonal cell lines
  viability: unaffected
